Results on two compounds are retold here after patent publication US11161824B2, “Heterocyclic lipoxin analogs and uses thereof” (University College Dublin, National University of Ireland, …, priority 2016, dated 2021).

Each structure is given as a SMILES string.

Series [1] has as its system NFkB. In words: LPS-induced NFkB-driven luciferase activity in THP-1 LUCIA monocytes. The conditions noted are these: for reduction of LPS-induced NFkB luciferase activity: 30 min pre-treatment, then 24 h with 50 ng/ml LPS, relative to LPS. In kind it is cell-based. As for the experimental part:
1×10^5 THP-1 LUCIA monocytes were pre-treated for 30 min with native LXA4 1 (FIG. 1A), imidazole analogues 9 [(1R)-epimer (FIG. 1B) and (1S)-epimer (FIG. 1C)], vehicle or appropriate controls, at increasing doses ranging from 10^−12 M up to 10^−6 M. 10^8 HKLM was used as positive control for NFkB activation. After 24 h from stimulation with 50 ng/ml of LPS, supernatants were collected and NFkB-driven luciferase was measured. (d) Data are expressed as % Relative Luminescence Unit relative to LPS alone ±SEM (n=3), *=p<0.05, **=p<0.01, ***=p<0.001. Graphs display the statistical analysis of the tested compound vs LPS.
(§1) The experiments were based around a model which utilised 1×10^5/ml THP-1 monocytes stably expressing NFkB luciferase reporter gene (LUCIA).
(§2) Anti-inflammatory activity was assessed by testing 10 analogues (6 quinoxalines & 4 isoquinolines) in presence & absence of lipopolysaccharide (LPS). For each analogue, a dose-response from 10^−12 M up to 10^−6 M was performed. The vehicle control corresponded to 0.1% Ethanol. NFkB activator, Heat-Killed Listeria Monocytogenes (HKLM) (10^7 cells/ml), were used as positive control for luciferase induction. 10^−6 M Dexamethasone (Dex) was used as positive control for luciferase inhibition. […] Benzo-lipoxin A4 (BLX) was used as positive control for LXA4 analogues.
A 2-tailed, assuming unequal variance T-test analysis was performed on three independent experiments for each assay. P-values were considered significant when p<0.05. If p<0.05, then * or $; if p<0.01, then ** or $$ or ##; if p<0.001, then *** or $$$ or ###.
Cells were seeded in 96-well plates and pre-treated with increasing doses of LXA4, analogues or controls for 30 min, followed by 24 h of co-incubation with 50 ng/ml LPS. […] (*=statistical analysis vs LPS; $=statistical analysis vs LXA4)

The subject of series [2] is NFkB. In words: NFkB-driven luciferase activity in resting conditions (absence of LPS) in THP-1 LUCIA monocytes. The conditions noted are these: 10^-12 M to 10^-6 M, 24 h. In kind it is cell-based. As for the experimental part: 1×10^5 THP-1 LUCIA monocytes were treated for 30 min with native (a) LXA4 1, its stable imidazole-lipoxin analogues (1R)-9 and (1S)-9, vehicle or appropriate controls, at increasing doses ranging from 10^−12 M up to 10^−6 M. After 24 h, supernatants were collected and NFkB-driven luciferase was measured. Data are expressed as % Relative Luminescence Unit relative to LPS alone ±SEM (n=3).
as §1, §2

For another series, the system named is Th1 cytokine release. In words: LPS-induced Th1 cytokine release from THP-1 LUCIA monocytes. In kind it is cell-based. The following applies: 10^-11, 10^-9 or 10^-7 M; 50 ng/ml LPS 24 h; IL1β, IL6, IL12p70, IFNγ, TNF-α as per figure. As for the experimental part: FIG. 2A-2E are graphs showing imidazole-lipoxin analogues (1R)-9 and (1S)-9 reduce LPS-induced Th1 cytokine release. 1×10^5 THP-1 LUCIA monocytes were pre-treated for 30 min with […], 10^−9 M or 10^−7 M of LXA4 1 and imidazole-lipoxin analogues (1R)-9 and (1S)-9, vehicle or appropriate controls. After 24 h from stimulation with 50 ng/ml of LPS, supernatants were collected and […] (FIG. 2A), IL6 (FIG. 2B), IL12p70 (FIG. 2C), IFNγ (FIG. 2D), and TNF-α (FIG. 2E) levels were measured. Data are expressed as % cytokine secretion relative to LPS alone ±SEM (n=3), *=p<0.05, **=p<0.01, ***=p<0.001.
FIG. 6A-6C are graphs showing that quinoxaline-lipoxin analogue (1R)-CT-4-43 inhibits LPS-induced Th1 cytokine release. 1×10^5 THP-1 LUCIA monocytes were pre-treated for 30 min with […], 10^−9 M or 10^−7 M of LXA4 and quinoxaline-lipoxin analogue (1R)-CT-4-43, vehicle or appropriate controls. After 24 h from stimulation with 50 ng/ml of LPS, supernatants were collected and IL13 (FIG. 6A), IL6 (FIG. 6B), and IFNγ (FIG. 6C) levels were measured. Data are expressed as % cytokine secretion relative to LPS alone ±SEM (n=3), *=p<0.05, **=p<0.01, ***=p<0.001.
FIG. 9A-9C are graphs showing that the isoquinoline-lipoxin analogue RB3 inhibit LPS-induced Th1 cytokine release. 1×10^5 THP-1 LUCIA monocytes were pre-treated for 30 min with 10^−11 M, 10^−9 M or 10^−7 M of LXA4 and isoquinoline-lipoxin analogue (1R)-RB3, vehicle or appropriate controls. After 24 h from stimulation with 50 ng/ml of LPS, supernatants were collected and IL1β(FIG. 9A), IL6 (FIG. 9B), and IL12p70 (FIG. 9C) levels were measured. Data are expressed as % cytokine secretion relative to LPS alone ±SEM (n=3), *=p<0.05, **=p<0.01, ***=p<0.001.

In series [3] the test system is carrageenan-induced paw swelling. Nature of the series: Murine carrageenan-induced paw swelling. In kind it is in vivo, C57Bl/6 mice. The conditions noted are these: 45 ng/mouse i.p. 30 mins before intrapaw 1% carrageenan; 4-72 h. As for the experimental part: CT4-43 attenuates carageenan-induced paw swelling—Mice [male C57Bl/6] were administered vehicle [0.01% EtOH] or CT4-4 [45 ng/mouse i.p] 30 mins before intrapaw injection of 1% carageenan. Paw swelling was monitored over time [4-72 h] using an external lever gauge [Kroeplin]. Data are presented as mean+/−SEM, n=3 mice/treatment group.
Background: In the carrageenan paw model, swelling and tenderness develop within hours.

A further series deals with THP-1 monocytes. The following applies: human, 24 h. As for the experimental part: Cytotoxicity Prior to functional assay testing, all compounds were screened for any cytotoxic effect, in the presence & absence of LPS, measuring the level of lactate dehydrogenase (LDH) released at A490nm.
The cells were treated as described above and, after 24 h, supernatant was collected and LDH activity assayed.

Regarding `CCCCC[C@@H](O)c1nc2ccccc2nc1/C=C/[C@@H](O)[C@@H](O)CCCC(=O)OC` [(1R)-CT4-43, Methyl (5S,6R,E)-5,6-dihydroxy-8-(3-((R)-1-hydroxyhexyl)quinoxalin-2-yl)oct-7-enoate], the “reduction of LPS-induced NFkB luciferase activity” value was determined as 38.2±8.2% in the series on NFkB [1] (1 nM) and 34.8±4.2% with NFkB [1] (10 nM). Besides, the “effect on LPS-induced NFkB-driven luciferase activity (in words)” value in the series with NFkB [1] (doses 10^-12 M to 10^-6 M, 50 ng/ml LPS, 24 h) is on record as “attenuating”. Further, in the series with NFkB [1] (versus LXA4 or other analogues), the “potency in reducing LPS-induced NFkB activity, comparison in words” value is “significantly more potent than LXA4”. Besides, the “NFkB-driven luciferase activity in resting conditions (in words)” value in the series with NFkB [2] is listed as “does not elicit”. In addition, in the series with Th1 cytokine release, the “effect on LPS-induced Th1 cytokine release (in words)” value is “inhibits”. Besides, in series [3], the “effect on carrageenan-induced paw swelling (in words)” value was “attenuates”.
As for `C[C@@H]1C[C@H]2[C@@H]3CCC4=CC(=O)C=C[C@]4(C)[C@@]3(F)[C@@H](O)C[C@]2(C)[C@@]1(O)C(=O)CO` [Dexamethasone], the “effect on LPS-induced LDH activity (cytotoxicity, in words)” value in the series on THP-1 monocytes is given as “significantly (p<0.001) increased”.
